Measurements from US20250163057A1, “DCN-1 MODULATING COMPOUNDS AND METHODS OF USE THEREOF” (Cellarity, Inc., priority 2023, published 2025).
Like-named read-outs stand apart in the source and are kept apart here.

Tests used:
[1] = test system: Cullin-3 (CUL3) neddylation; assay: AlphaLISA assay for Cullin-3 (CUL3) neddylation in TF 1 cells; type: cell-based; conditions: 3 hours treatment
Procedure, shortened: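 Neddylated CUL3 was quantified by AlphaLISA in lysates of TF 1 cells exposed for 3 h to test compound in IMDM without supplements. Percent inhibition set between vehicle and 1 μM DI-1548 positive control; IC50 derived by Hill-equation fitting of dose-response curves.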

fetal hemoglobin protein = assay: HbF HPLC Cell Culture Assay; type: cell-based; conditions: for EC50: 336 h, HbF induction, Day 14 of culture; for Hemoglobin HPLC Ymax obs (%): relative to a control compound
Experimental: A Cell Culture Assay was performed to evaluate the ability of compounds to induce fetal hemoglobin in a cell culture. The amount fetal hemoglobin protein induced was measured by HPLC.
Cell culture began on Day −4 (thaw day). Thaw buffer was prepared by sterile filtering 6 mL of Human Serum Albumin and 144 mL of PBS to make sterile 1% I/PBS. Cells were removed from liquid nitrogen storage and mostly thawed in a 37° C. water bath. Once the ice in the cryovials was melted, cells were transferred quickly into a 50 mL conical tube. Cryovial was rinsed once with thaw buffer and buffer was transferred over to the conical tube as well. Next, doubling volumes of thaw buffer was added to the conical and gently swirled for ˜30 seconds to one minute (for example: 2 mL was added and swirled, then 4 mL, then 8 mL, and so on) until the volume in the conical is 32 mL. Cells and buffer were centrifuged at 300G for 8 minutes, and the supernatant was aspirated. Another 32 mL of thaw buffer was added slowly, swirling the tube. The tube was again centrifuged at 300G for 8 minutes and the supernatant was aspirated. Cells were counted by resuspending in 1 mL of expansion media and counting with AOPI to determine the concentration of cells/mL.
On day 2, Passage & Treatment Day, each cell culture well was counted. Next fresh CD34 Expansion Media was made which contained StemSpan SFEM, CC100 and TPO all from StemCell technologies. Appropriate volume of cells was collected, centrifuged at 300 g and resuspended in fresh media. Cells were plated in treatment format at a density of 200,000 cells/ml, 25,000 cells/well. Finally, they were treated with test compounds as well as positive and negative controls.
On Days 0, 3 & 5 the same process was carried out. First, each cell culture well was counted. Next Phase 1 Erythroid Differentiation Media was freshly made, which contained StemSpan SFEM, 2.5 U/ml EPO, 0.5 mg/ml Holo-TF, 1× Glutamax, 5 μl/ml chemically defined lipid mixture, 10 ng/ml insulin, 50 ng/ml SCF, 10 ng/ml IL-3. Appropriate volume of cells was collected, centrifuged at 300 g and resuspended in fresh media. Cells should now be in fresh wells at a density of 100,000 cells/ml. 60,000 cells, 60,000 cells and 100,000 cells for days 0, 3, 5 respectively. Finally, fresh compound was added to each well at each timepoint (Days 0, 3 & 5).
On Day 7 media and cell culture density changes. Each cell culture well was counted. Next, Phase 2 Erythroid Differentiation Media was freshly made, which contains StemSpan SFEM, 2.5 U/ml EPO, 0.5 mg/ml Holo-TF, 1× Glutamax, 5 μl/ml chemically defined lipid mixture, 10 ng/ml insulin, 50 ng/ml SCF. Appropriate volume of cells was collected, centrifuged at 300 g and resuspended in fresh media. Cells were plated in fresh wells at a density of 500,000 cells/ml, 300,000 cells/well. Finally, fresh compound was added to each well at Day 7 timepoint.
On Day 10 media formulation is once again changed. Each cell culture well was counted. Fresh Phase 3 Erythroid Differentiation Media was made which contains StemSpan SFEM, 2.5 U/ml EPO, 0.5 mg/ml Holo-TF, 1× Glutamax, 5 μl/ml chemically defined lipid mixture, 10 ng/ml insulin. Appropriate volume of cells was collected, centrifuged at 300 g and resuspended in fresh media. Cells were plated in fresh wells at a density of 500,000 cells/ml, 500,000 cells/well. Finally, fresh compound was added to each well at Day 10 timepoint.
On Day 12 the cell density is once again changed. Each cell culture well was counted. Fresh Phase 3 Erythroid Differentiation Media was made. Appropriate volume of cells was collected, centrifuged at 300 g and resuspended in fresh media. Cells were plated in fresh wells at a density of 1,000,000 cells/ml, 1,000,000 cells/well. Finally fresh compound was added to each well.
Day 14 (18th day of experiment) refers to the terminal day of culture. Each cell culture well was counted. Next between 150K and 650K cells were placed in a uniquely labeled 1.5 ml standard tube. […]

[2] = biological target: T1, DCN1 (DCUND1) protein PONY domain (Homo sapiens (Human), UniProt Q96GG9); assay: TR-FRET assay, DCN1 binding with FAM-labeled probe
T1 sequence (Q96GG9 60-248): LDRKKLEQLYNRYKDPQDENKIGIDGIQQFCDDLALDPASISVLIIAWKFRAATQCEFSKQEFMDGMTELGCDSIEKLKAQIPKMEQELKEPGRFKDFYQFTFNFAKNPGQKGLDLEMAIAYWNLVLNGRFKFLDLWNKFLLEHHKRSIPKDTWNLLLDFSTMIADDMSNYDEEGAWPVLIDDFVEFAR
Procedure, shortened: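 Tb-DCN1 PONY domain (E. coli, biotin/streptavidin-Tb); FAM-labelled non-covalent inhibitor probe; TritonX buffer, 200 mM NaCl; 5 nM DCN1 + 20 nM probe or 0.31 nM DCN1 + 900 nM total probe; 0.1% DMSO; TR-FRET read 1, 5, 24 hrs.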

DCN1 protein = DCN1 protein (Homo sapiens (Human), UniProt Q96GG9); assay: Intact Protein MS Analysis with the RapidFire-TOF System (covalent adduct formation); type: binding; conditions: MS Emax; 400 nM DCN1, 3 hours at room temperature
Chain of DCN1 protein (Q96GG9 whole entry): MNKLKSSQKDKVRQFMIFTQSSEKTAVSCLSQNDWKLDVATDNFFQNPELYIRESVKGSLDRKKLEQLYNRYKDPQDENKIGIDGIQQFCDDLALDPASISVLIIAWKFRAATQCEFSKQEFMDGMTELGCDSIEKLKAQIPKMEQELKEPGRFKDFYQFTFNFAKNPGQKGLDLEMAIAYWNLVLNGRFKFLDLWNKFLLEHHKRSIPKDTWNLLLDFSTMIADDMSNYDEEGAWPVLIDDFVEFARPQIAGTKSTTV
Procedure, shortened: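 Tag-cleaved human DCN1 (400 nM) expressed in E. coli, in 25 mM Tris-HCl, 200 mM NaCl, 1 mM DTT, was incubated with 11 compound concentrations for 3 h at room temperature and quenched with 0.2% formic acid. Intact-protein Q-TOF MS with deconvolution detected the compound adduct mass.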

[3] = biological target: T1, DCN1 (DCUND1) protein PONY domain; assay: Off-rate measurement of reversible covalent molecules (jump dilution TR-FRET with Cy5 probe); type: binding; conditions: for Category: binding mode category from off-rate assay
Excerpt: A typical covalent compound is assumed to stay bound to a protein for at least the life of that protein in the cell. In reality, there is a range of how long a covalent compounds remains bound before a reverse reaction takes place. Thus, some covalent bonds can be labeled as reversible as their reverse reaction takes place in a measurable amount of time under physiological conditions. The assay capitalizes on the range of covalent binders by using a high affinity covalent binder as a probe to displace the more reversible binders in an adaptation of the jump dilution method.
In this version of the jump dilution method, the increase in covalent probe binding over time was measured through a TR-FRET reaction between the covalent probe and the biotinylated target protein.
The recombinant form of the DCN1 (DCUND1) protein PONY domain was produced using an E. coli expression system at Viva Biotech (China). The DCN1 protein was biotinylated (EZ sulfo-NHS-LC-biotin; Thermofisher) for labeling with streptavidin terbium (Tb) cryptate in the reaction. This biotinylated protein was used in two forms of the TR-FRET assay as described below.
The off-rate measurement is executed in two steps based on the jump dilution method. […] The greatest dilution allowed within the constraints of the assay was chosen. These factors allow a competitive advantage for the covalent probe to replace the test compound when that compound releases from the target protein. The actual measure is the rate of increased TR-FRET signal as the covalent probe replaces the test compound over time. […] The resulting time dependent curve of the TR-FRET signal is fit to the following equation:
Y=Y0+(Plateau−Y0)*(1−exp(−K*x))
K is the rate constant (1/unit of time). The residence time is defined as the inverse of K, the rate constant. The half-life is calculated as ln(2)/K.

[4] = 24 hr after treatment with compound, read-out: TR FRET IC50 24 hr
[5] = TR FRET IC50 1 hr (nM), 1 hr after treatment with compound
[6] = read-out: TR FRET IC50 1 hr, 1 hr after treatment with compound

Structure (SMILES) | IC50 ([1]; Homo sapiens, TF-1, 3 h) | EC50 (fetal hemoglobin protein) | Hemoglobin HPLC Ymax obs (%) (fetal hemoglobin protein) | IC50 [2, 4] | IC50 [2, 5] | % Adduct Formation (DCN1 protein) | IC50 [2, 6] | IC50 [1] | Category [3] | residence time ([3]; inverse of rate constant K, jump dilution TR-FRET) | koff ([3]; jump dilution, Cy5 covalent probe 150 nM, TR-FRET) | half-life ([3]; ln(2)/K, jump dilution TR-FRET)
CCN1C(=O)[C@@H](NC(=O)c2cccc(C(F)(F)F)c2)[C@@H](c2ccc(F)cc2)c2c(C(=O)N(C)CC#N)nn(-c3ccccc3)c21 (racemic) [Compound I-5, rac-(4R,5R)—N-(cyanomethyl)-7-ethyl-4-(4-fluorophenyl)-N-methyl-6-oxo-1-phenyl-5-(3-(trifluoromethyl)benzamido)-4,5,6,7-tetrahydro-1H-pyrazolo[3,4-b]pyridine-3-carboxamide] | ≤ 100 nM | 50 to 200 nM | ++ (Hemoglobin HPLC Ymax greater than 65.0 and less than or equal to 100.0) | ≤ 200 nM | ≤ 200 nM | +++ (MS Emax % adduct formation greater than 80.0 and less than or equal to 100.0) |  |  |  |  |  | 
CCN1C(=O)[C@@H](NC(=O)c2cccc(C(F)(F)F)c2)C(c2ccc(F)cc2)c2c(C(=O)N(CC#N)C3COC3)nn(-c3ccccc3)c21 (mixture of isomers) [Compound I-285] | ≤ 100 nM | ≤ 50 nM | ++ (Hemoglobin HPLC Ymax greater than 65.0 and less than or equal to 100.0) | ≤ 200 nM |  | +++ (MS Emax % adduct formation greater than 80.0 and less than or equal to 100.0) | ≤ 200 nM |  |  |  |  | 
CCN1C(=O)[C@@H](NC(=O)c2cccc(C(F)(F)F)c2)[C@@H](c2ccc(F)cc2)c2c(C(=O)N(C)[C@@H](C#N)C3COC3)nn(-c3ccccc3)c21 (single isomer, unassigned) [Compound I-294] |  | 50 to 200 nM | ++ (Hemoglobin HPLC Ymax greater than 65.0 and less than or equal to 100.0) |  |  | +++ (MS Emax % adduct formation greater than 80.0 and less than or equal to 100.0) |  | ≤ 100 nM |  |  |  | 
CCN1C(=O)[C@@H](NC(=O)c2cccc(C(F)(F)F)c2)[C@@H](c2ccc(F)cc2)c2c(C(=O)N3CCC[C@H]3C#N)nn(-c3ccccc3)c21 (racemic) [Compound I-34] | ≤ 100 nM | > 200 nM |  | ≤ 200 nM | ≤ 200 nM |  |  |  |  |  |  | 
CCN1C(=O)[C@@H](NC(=O)c2cccc(C(F)(F)F)c2)[C@@H](c2ccc(F)cc2)c2c(C(=O)N(C)[C@@H](C#N)CCN(C)C)nn(-c3ccccc3)c21 (single isomer, unassigned) [Compound I-304, (4S,5S)—N-[(1R*)-1-cyano-3-(dimethylamino)propyl]-7-ethyl-4-(4-fluorophenyl)-N-methyl-6-oxo-1-phenyl-5-[3-(trifluoromethyl)benzamido]-4H,5H-pyrazolo[3,4-b]pyridine-3-carboxamide] | ≤ 100 nM | ≤ 50 nM |  |  |  |  |  |  |  |  |  | 
CCN1C(=O)[C@@H](NC(=O)c2cccc(C(F)(F)F)c2)[C@@H](c2ccc(F)cc2)c2c(C(=O)N3CCNC[C@@H]3C#N)nn(-c3ccccc3)c21 [Compound I-281] |  | ≤ 50 nM | ++ (Hemoglobin HPLC Ymax greater than 65.0 and less than or equal to 100.0) |  |  |  |  |  |  |  |  | 
CCN1C(=O)[C@@H](NC(=O)c2cccc(C(F)(F)F)c2)[C@@H](C2CC2)c2c(C(=O)N3CCC[C@H]3C#N)nn(C3CCOCC3)c21 [Compound I-348] | ≤ 100 nM |  |  | ≤ 200 nM | 200 to 1000 nM | ++ (MS Emax % adduct formation greater than 30.0 and less than or equal to 80.0) |  |  | slow reversible |  |  | 
CCN1C(=O)[C@@H](NC(=O)c2cccc(C(F)(F)F)c2)[C@@H](c2ccc(F)cc2)c2c(C(=O)N3CC[C@H]3C#N)nn(C3CCOCC3)c21 [Compound I-384] | ≤ 100 nM |  |  | ≤ 200 nM |  | + (MS Emax % adduct formation greater than or equal to 0.0 and less than or equal to 30.0) | ≤ 200 nM |  | reversible covalent | 184 min | 9.21e-05 s⁻¹ | 2.122 h
CCN1C(=O)[C@@H](NC(=O)c2cccc(C(F)(F)F)c2)[C@@H](c2ccc(F)cc2)c2c(C(=O)N(C)[C@@H](C#N)CCN(C)C)nn(-c3ccccc3)c21 (relative stereo) [Compound I-304, (4S,5S)—N-[(1R*)-1-cyano-3-(dimethylamino)propyl]-7-ethyl-4-(4-fluorophenyl)-N-methyl-6-oxo-1-phenyl-5-[3-(trifluoromethyl)benzamido]-4H,5H-pyrazolo[3,4-b]pyridine-3-carboxamide] |  |  | ++ (Hemoglobin HPLC Ymax greater than 65.0 and less than or equal to 100.0) |  |  | +++ (MS Emax % adduct formation greater than 80.0 and less than or equal to 100.0) |  |  |  |  |  | 
